Patent US5449661A, “Angiotensin converting enzyme inhibitor and method for preparing same” (The Calpis Food Industry Co., Ltd., priority 1992, dated 1995)
Residues, ends and D or L forms follow the SMILES beside them.

The molecules below were run against T1, angiotensin converting enzyme (ACE) (Oryctolagus cuniculus, UniProt P12822) (assay: ACE inhibiting activity (method of Cushman and Cheung, Hip-His-Leu substrate)). Conditions: read-out: IC50 (μM), ACE inhibiting activity of synthesized peptides; chemically synthesized peptides; measured in the same way as in Example 1.
T1 sequence (P12822 34-1310): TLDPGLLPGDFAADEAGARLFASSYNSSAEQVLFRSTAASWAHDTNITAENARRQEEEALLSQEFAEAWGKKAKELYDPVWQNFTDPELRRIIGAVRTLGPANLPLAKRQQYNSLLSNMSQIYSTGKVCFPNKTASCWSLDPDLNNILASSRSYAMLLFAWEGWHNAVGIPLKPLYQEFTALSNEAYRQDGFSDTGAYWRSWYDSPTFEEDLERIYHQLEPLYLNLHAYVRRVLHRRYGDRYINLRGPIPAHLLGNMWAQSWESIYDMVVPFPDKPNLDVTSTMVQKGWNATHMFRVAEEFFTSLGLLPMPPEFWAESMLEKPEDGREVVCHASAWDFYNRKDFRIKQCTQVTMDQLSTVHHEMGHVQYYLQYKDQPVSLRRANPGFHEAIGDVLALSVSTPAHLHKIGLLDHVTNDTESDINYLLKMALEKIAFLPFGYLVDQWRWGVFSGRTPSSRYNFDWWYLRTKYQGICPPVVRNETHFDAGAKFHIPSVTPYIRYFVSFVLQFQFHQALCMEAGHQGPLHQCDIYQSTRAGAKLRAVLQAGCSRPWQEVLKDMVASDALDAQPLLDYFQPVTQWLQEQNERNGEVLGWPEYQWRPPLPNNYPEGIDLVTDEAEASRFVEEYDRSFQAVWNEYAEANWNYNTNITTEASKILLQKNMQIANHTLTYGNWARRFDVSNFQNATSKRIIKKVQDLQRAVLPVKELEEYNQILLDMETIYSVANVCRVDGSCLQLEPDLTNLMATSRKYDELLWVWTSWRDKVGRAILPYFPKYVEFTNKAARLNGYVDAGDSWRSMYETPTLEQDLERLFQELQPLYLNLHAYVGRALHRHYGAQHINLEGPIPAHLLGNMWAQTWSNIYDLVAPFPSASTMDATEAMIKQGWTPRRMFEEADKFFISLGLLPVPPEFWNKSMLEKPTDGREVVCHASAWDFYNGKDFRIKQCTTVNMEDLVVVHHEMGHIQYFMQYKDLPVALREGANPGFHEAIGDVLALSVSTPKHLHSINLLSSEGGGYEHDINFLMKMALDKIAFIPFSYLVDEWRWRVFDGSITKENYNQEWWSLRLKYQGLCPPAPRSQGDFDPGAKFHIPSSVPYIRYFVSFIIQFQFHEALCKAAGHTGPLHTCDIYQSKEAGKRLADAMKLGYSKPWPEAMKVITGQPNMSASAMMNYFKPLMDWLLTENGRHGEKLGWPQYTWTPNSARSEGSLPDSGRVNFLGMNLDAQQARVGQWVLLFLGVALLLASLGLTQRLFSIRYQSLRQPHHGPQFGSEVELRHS
Procedure: 0.2 ml of hippuryl histidyl leucine (Hip-His-Leu, manufactured by SIGMA CHEMICAL CO.), adjusted to 5 mM with a 0.1M boric acid buffer containing 0.3M NaCl, pH 8.3, and 0.02 ml of an aqueous enzyme solution (ACE, 0.1 u/ml, manufactured by SIGMA CHEMICAL CO.) were added in this order as a substrate to the contents of each test tube, and reaction was carried out at 37° C. for 30 minutes. 0.25 ml of 1N hydrochloric acid was subsequently added to the contents of each test tube. After termination of the reaction, 1.7 ml of ethyl acetate was added to the contents of each tube, and agitation was continued for 20 seconds. After centrifugal separation at 3000 rpm for 10 minutes, and recovery of 1.4 ml of an ethyl acetate layer, the solvent was removed by heating at 120° for 40 minutes. After removing the solvent and adding 1 ml of distilled water, the absorption at 228 nm of the extracted hippuric acid was measured and adopted as the ACE inhibiting activity. The inhibiting ratio was calculated by the following equation:
Inhibiting Percentage=[(A-B)/(A-C)]×100(%)

Row | SMILES | IC50
1 | CC(C)[C@H](NC(=O)[C@@H]1CCCN1C(=O)[C@H](C)N)C(=O)N1CCC[C@H]1C(=O)N1CCC[C@H]1C(=O)O [Ala--Pro--Val--Pro--Pro, Ala-Pro-Val-Pro-Pro] (H-APVPP-OH) | 627 µM
2 | CC(C)[C@H](NC(=O)[C@@H]1CCCN1)C(=O)N1CCC[C@H]1C(=O)N1CCC[C@H]1C(=O)O [Pro--Val--Pro--Pro, Pro-Val-Pro-Pro] (H-PVPP-OH) | 181 µM
3 | CC(C)[C@H](N)C(=O)N[C@H](C(=O)N1CCC[C@H]1C(=O)N1CCC[C@H]1C(=O)O)C(C)C [Val--Val--Pro--Pro, Val-Val-Pro-Pro] (H-VVPP-OH) | 285 µM
4 | CC(C)[C@H](N)C(=O)N[C@H](C(=O)N[C@H](C(=O)N1CCC[C@H]1C(=O)N1CCC[C@H]1C(=O)O)C(C)C)C(C)C [Val--Val--Val--Pro--Pro, Val-Val-Val-Pro-Pro] (H-VVVPP-OH) | 873 µM

The next molecules have a lower IC50 than those just listed; values first:

Row | IC50 | SMILES
5 | 160 µM | CC(C)C[C@H](N)C(=O)N[C@H](C(=O)N[C@@H](CCC(N)=O)C(=O)N[C@H](C(=O)N1CCC[C@H]1C(=O)N[C@H](C(=O)N[C@H](C(=O)N[C@H](C(=O)N1CCC[C@H]1C(=O)N1CCC[C@H]1C(=O)O)C(C)C)C(C)C)C(C)C)[C@@H](C)O)[C@@H](C)O (H-LTQTPVVVPP-OH)
6 | 125 µM | CC(C)C[C@H](N)C(=O)N[C@H](C(=O)N1CCC[C@H]1C(=O)N1CCC[C@H]1C(=O)O)C(C)C [Leu--Val--Pro--Pro, Leu-Val-Pro-Pro] (H-LVPP-OH)
7 | 12 µM | CC(C)C[C@H](NC(=O)[C@@H](N)Cc1ccccc1)C(=O)N[C@H](C(=O)N1CCC[C@H]1C(=O)N1CCC[C@H]1C(=O)O)C(C)C [Phe--Leu--Val--Pro--Pro, Phe-Leu-Val-Pro-Pro] (H-FLVPP-OH)
8 | 117 µM | CC(C)[C@H](NC(=O)[C@@H]1CCCN1)C(=O)N[C@H](C(=O)N[C@H](C(=O)N1CCC[C@H]1C(=O)N1CCC[C@H]1C(=O)O)C(C)C)C(C)C [Pro--Val--Val--Val--Pro--Pro, Pro-Val-Val-Val-Pro-Pro] (H-PVVVPP-OH)
